Test results published in article PMC4335020, “Single Oral Dose Pharmacokinetics of Decursin and Decursinol Angelate in Healthy Adult Men and Women” (PLoS ONE, 2015).
Read-outs that look alike come from different tables or passages of the source.

Experiment: Single oral dose human plasma pharmacokinetics of D, DA and DOH after Cogni.Q
Type: in vivo
Settings: for Tmax / AUC(0-t) / Cmax / half-life: human, plasma
Text: Ten healthy male and 10 female subjects were recruited by public announcement in Amarillo, TX, from January 2013 to April 2013 (see Fig. 1 CONSORT diagram). The sample size for each gender was chosen without power calculation due to the lack of prior knowledge of PK parameter variance in humans. After receiving informed consent verbally and in writing, the health status of each candidate was confirmed by health questionnaire, plasma biochemistry (hepatic and renal functions), complete blood cell count (CBC), and a physical examination by a participating academic physician. Subjects with diabetes, or pregnant, perinatal and breastfeeding women were excluded. For the 48 hours preceding study visit until the final blood draw, all subjects were instructed to avoid taking any prescription or nonprescription drugs, vitamins, and herbal/dietary supplements. Each subject was compensated for participating in the study per TTUHSC IRB approved rate.
Eligible subjects arrived at our clinical facility at 0700 (7:00 am) on the test day after a fast beginning at 2200 (10:00 pm) the previous night. After a brief review of vital signs, the nurse placed an intravenous (IV) line with saline drip in one arm of each subject. A baseline pre-dose (hour 0) blood sample was drawn through the IV line; after that subjects swallowed four Cogni.Q vegicaps with 240 mL of water at hour 0 under direct supervision. Subjects stayed at the clinical facility in their room for the next 12 hours, returning at 24 and 48 hours. Blood was drawn at baseline (hour 0) and at 0.5, 1, 2, 3, 4, 6, 8, 12, 24 and 48 hours after dosing into Vacutainer Blood Collection Tube (Becton-Dickinson, Franklin Lakes, NJ. Product Number: 367874, Sodium heparin was used as anti-coagulant). Water was allowed as desired except for within the first hour after Cogni.Q consumption. All subjects received standardized meals at post-dose hours 4.5 and 9.5 but no food was allowed for at least the first 4 hours post-dose.
Plasma was prepared by centrifuging the heparinized blood at 1000 g for 15 minutes at room temperature. Urine samples (40mL) were collected within time spans of 0–4, 4–8, 8–12 and 12–24 hours (total volume of urine was recorded). All plasma and urine samples were put on dry ice immediately and then stored at -80°C freezer until analysis.
Plasma samples were extracted with a validated solid supported liquid extraction (SLE) method facilitated with a positive pressure manifold (Biotage, Charlotte, NC). Briefly, 100 μL of plasma sample was spiked with 5 μL of 10 ng/μL prednisolone (IS), diluted with 200 μL of LC-MS grade water, mixed and loaded onto ISOLUTE SLE+ 400 μL Array Well cartridges (Biotage, Charlotte, NC). A pulse of minimum positive pressure was applied to facilitate the samples absorption into the cartridges. After the samples were allowed to absorb for 5 min, the compounds were eluted with 2×500 μL tert-butyl methyl ether. The eluent was dried in a Speedvac and the resulting residue was reconstituted in 50 μL of methanol for UHPLC-MS/MS analysis.
Eight-point calibration curves were constructed for D, DA and DOH, at concentrations of 0.1, 0.5, 1, 5, 10, 20, 50 and 100 μg/L for D and DA, and at concentrations of 1, 5, 10, 50, 100, 200, 500 and 1000 μg/L for DOH, respectively. The linear range was 0.1–100 μg/L (0.3–300 nmol/L), 0.1–100 μg/L (0.3–300 nmol/L) and 1–1000 μg/L (4–4000 nmol/L) for D, DA and DOH, respectively. The inter- and intra-assay CV were lower than 6.5% and the accuracy was between 90–105%. Calibration curve was run for each batch of samples analyzed. The mean calibration curve correlation coefficient (r) for D, DA and DOH was 0.999, 0.999 and 0.998, respectively (data from 7–10 calibration curves). In addition, 70% of the plasma samples were extracted and analyzed twice, the data from two replicate analyses were nearly identical and combined for final data analyses and presentation. […]

Tmax (oral, 4 Cogni.Q vegicaps, subject S9 (158 lb), read-out: Tmax): 1 h
AUC(0-t) (oral, 4 Cogni.Q vegicaps, subject S10 (185 lb), read-out: AUC0-48h): 115 nmol·h/L
Cmax (oral, 4 Cogni.Q vegicaps, subject S10 (185 lb), read-out: Cmax): 7 nM
half-life (oral, 4 Cogni.Q vegicaps, subject S10 (185 lb), read-out: Terminal t1/2, h (converted)): 13.3 h
Tmax (oral, 4 Cogni.Q vegicaps, subject S10 (185 lb), read-out: Tmax): 2 h
AUC(0-t) (oral, 4 Cogni.Q vegicaps, subject S11 (178 lb), read-out: AUC0-48h): 168 nmol·h/L
Cmax (oral, 4 Cogni.Q vegicaps, subject S11 (178 lb), read-out: Cmax): 29.7 nM
half-life (oral, 4 Cogni.Q vegicaps, subject S11 (178 lb), read-out: Terminal t1/2, h (converted)): 14.2 h
Tmax (oral, 4 Cogni.Q vegicaps, subject S11 (178 lb), read-out: Tmax): 1 h
AUC(0-t) (oral, 4 Cogni.Q vegicaps, subject S12 (169 lb), read-out: AUC0-48h): 150 nmol·h/L
Cmax (oral, 4 Cogni.Q vegicaps, subject S12 (169 lb), read-out: Cmax): 16.8 nM
half-life (oral, 4 Cogni.Q vegicaps, subject S12 (169 lb), read-out: Terminal t1/2, h (converted)): 40.2 h
Tmax (oral, 4 Cogni.Q vegicaps, subject S12 (169 lb), read-out: Tmax): 2 h
AUC(0-t) (oral, 4 Cogni.Q vegicaps, subject S13 (192 lb), read-out: AUC0-48h): 106 nmol·h/L
Cmax (oral, 4 Cogni.Q vegicaps, subject S13 (192 lb), read-out: Cmax): 11.2 nM
half-life (oral, 4 Cogni.Q vegicaps, subject S13 (192 lb), read-out: Terminal t1/2, h (converted)): 12.7 h
Tmax (oral, 4 Cogni.Q vegicaps, subject S13 (192 lb), read-out: Tmax): 1 h
AUC(0-t) (oral, 4 Cogni.Q vegicaps, subject S14 (200 lb), read-out: AUC0-48h): 96.4 nmol·h/L
Cmax (oral, 4 Cogni.Q vegicaps, subject S14 (200 lb), read-out: Cmax): 24.4 nM
half-life (oral, 4 Cogni.Q vegicaps, subject S14 (200 lb), read-out: Terminal t1/2, h (converted)): 12.6 h
Tmax (oral, 4 Cogni.Q vegicaps, subject S14 (200 lb), read-out: Tmax): 1 h
AUC(0-t) (oral, 4 Cogni.Q vegicaps, subject S15 (177 lb), read-out: AUC0-48h): 512 nmol·h/L
Cmax (oral, 4 Cogni.Q vegicaps, subject S15 (177 lb), read-out: Cmax): 196 nM
half-life (oral, 4 Cogni.Q vegicaps, subject S15 (177 lb), read-out: Terminal t1/2, h (converted)): 18.7 h
Tmax (oral, 4 Cogni.Q vegicaps, subject S15 (177 lb), read-out: Tmax): 1 h
Tmax (oral, 4 Cogni.Q vegicaps, subject S16 (175 lb), read-out: Tmax): 3 h
AUC(0-t) (oral, 4 Cogni.Q vegicaps, subject S17 (147 lb), read-out: AUC0-48h): 593 nmol·h/L
Cmax (oral, 4 Cogni.Q vegicaps, subject S17 (147 lb), read-out: Cmax): 104 nM
half-life (oral, 4 Cogni.Q vegicaps, subject S17 (147 lb), read-out: Terminal t1/2, h (converted)): 24.2 h
Tmax (oral, 4 Cogni.Q vegicaps, subject S17 (147 lb), read-out: Tmax): 2 h
half-life (oral, 4 Cogni.Q vegicaps, subject S18 (180 lb), outlier, excluded from means, read-out: Terminal t1/2, h (converted)): 55.7 h
AUC(0-t) (oral, 4 Cogni.Q vegicaps, subject S18 (180 lb), read-out: AUC0-48h): 48.1 nmol·h/L
Cmax (oral, 4 Cogni.Q vegicaps, subject S18 (180 lb), read-out: Cmax): 3 nM
Tmax (oral, 4 Cogni.Q vegicaps, subject S18 (180 lb), read-out: Tmax): 4 h
AUC(0-t) (oral, 4 Cogni.Q vegicaps, subject S19 (130 lb), read-out: AUC0-48h): 87.7 nmol·h/L
Cmax (oral, 4 Cogni.Q vegicaps, subject S19 (130 lb), read-out: Cmax): 6.9 nM
half-life (oral, 4 Cogni.Q vegicaps, subject S19 (130 lb), read-out: Terminal t1/2, h (converted)): 16 h
Tmax (oral, 4 Cogni.Q vegicaps, subject S19 (130 lb), read-out: Tmax): 4 h
half-life (oral, subject S16 (175 lb), outlier, excluded from means, read-out: Terminal t1/2, h (converted)): 190 h
AUC(0-t) (oral, subject S16 (175 lb), read-out: AUC0-48h): 68.4 nmol·h/L
Cmax (oral, subject S16 (175 lb), read-out: Cmax): 4.3 nM
AUC(0-t) (oral, subject S20 (200 lb), read-out: AUC0-48h): 170 nmol·h/L
Cmax (oral, subject S20 (200 lb), read-out: Cmax): 17.2 nM
half-life (oral, subject S20 (200 lb), read-out: Terminal t1/2, h (converted)): 18.8 h
Tmax (oral, subject S20 (200 lb), read-out: Tmax): 2 h
conversion of D/DA to DOH (humans, from plasma AUC0–48h values): > 98%
AUC(0-t) (male, oral, 4 Cogni.Q vegicaps, Men n=10 (S1 Table), read-out: AUC0-48h, Mean): 327 nmol·h/L
Cmax (male, oral, 4 Cogni.Q vegicaps, Men n=10 (S1 Table), read-out: Cmax, nM, Mean): 52.2 nM
Tmax (male, oral, 4 Cogni.Q vegicaps, Men n=10 (S1 Table), read-out: Tmax, h, Mean): 2.1 h
half-life (male, oral, Men, outliers excluded (S1 Table), read-out: Terminal t1/2, h, Mean (converted)): 14.9 h
AUC(0-t) (male, po, Men N = 10, single oral dose Cogni.Q, read-out: AUC0–48h, h.nmol/L Mean (SD)): 327 nmol·h/L
Cmax (male, po, Men N = 10, single oral dose Cogni.Q, read-out: Cmax, nmol/L, Mean (SD)): 52.2 nM
Tmax (male, po, Men N = 10, single oral dose Cogni.Q, read-out: Tmax, h, Mean (SD)): 2.1 h
half-life (male, po, Men, outlier subjects excluded, single oral dose Cogni.Q, read-out: T1/2, h, terminal Mean (SD) (converted)): 14.9 h
difference in C max among subjects in the same gender (same gender): more than 20 fold
Compound: C/C=C(/C)C(=O)O[C@H]1Cc2cc3ccc(=O)oc3cc2OC1(C)C [DA, decursinol angelate]
